From patent US9662372B2 (priority 2013, dated 2017)
Several values for one entry are separate records, joined by “and”; a condition that tells them apart may be missing. Identical values can stand only once. Where a SMILES comes first, the peptide text is derived from it.

Columns and labels:
C. difficile ATCC 9689 [1] = assay type: cell-based, Clostridium difficile
C. difficile ATCC 9689 [2] = assay: Bacterial mass in wells of PM panels (OD 750 nm); assay type: cell-based, Clostridium difficile; settings: OD difference with vs without C. difficile, 72 h
[3] = phosphorus/sulfur source panel PM04
[4] = nitrogen source (PM03/06/07/08)

Molecule | Toxin (C. difficile ATCC 9689 [1]) | C. difficile Mass (C. difficile ATCC 9689 [2]; [4]) | also measured
NC(=O)CCCCC1CCSS1 (racemic) [D,L-Lipoamide] | <0.122 ng/mL | – | C. difficile Mass (C. difficile ATCC 9689 [2]; [3]): 0.0265 OD (750 nm)
NCCO [2-Aminoethanol] | 173 ng/mL | – | C. difficile Mass (C. difficile ATCC 9689 [2]; carbon source (PM01/PM02)): 0.0853 OD (750 nm)
Nc1ncnc2nc[nH]c12 [Adenine] | – | 0.031 OD (750 nm) | Toxin induction (rank, in words) (C. difficile ATCC 9689 [1]): strongest toxin inducer
Nc1ccn([C@@H]2O[C@@H]3COP(=O)(O)O[C@H]3[C@H]2O)c(=O)n1 [Cytidine 3′,5′-Cyclic Monophosphate] | 321 ng/mL | – | C. difficile Mass (C. difficile ATCC 9689 [2]; [3]): 0.0106 OD (750 nm)
NO [Hydroxylamine] | 334 ng/mL | 0.0228 OD (750 nm) | –
CS(=O)(=O)CC[C@H](N)C(=O)O [L-Methionine Sulfone] | <0.122 ng/mL | – | C. difficile Mass (C. difficile ATCC 9689 [2]; [3]): 0.0446 OD (750 nm)
O=C(O)[C@@H]1CCCN1 [L-Proline] | – | 0.0394 OD (750 nm) | Toxin induction (rank, in words) (C. difficile ATCC 9689 [1]): highest toxin inducer in the amino acid category
CCC(C)C(NC(=O)C(N)CC(C)C)C(=O)O (stereo not drawn) [Leu-Ile] (H-Leu-Ile-OH; configuration not given here) | <0.122 ng/mL | 0.0523 OD (750 nm) | Effect on toxin production (in words) (C. difficile ATCC 9689 [1]): toxin production inhibitor
CC(C)CC(N)C(=O)NC(CC(C)C)C(=O)NC(CC(C)C)C(=O)O (stereo not drawn) [Leu-Leu-Leu] (H-Leu-Leu-Leu-OH; configuration not given here) | <0.122 ng/mL | 0.0463 OD (750 nm) | Effect on toxin production (in words) (C. difficile ATCC 9689 [1]): toxin production inhibitor
CC(C)C[C@H](NC(=O)[C@@H](N)CC(C)C)C(=O)O [Leu-Leu] | <0.122 ng/mL | 0.0530 OD (750 nm) | Effect on toxin production (in words) (C. difficile ATCC 9689 [1]): toxin production inhibitor
CSCCC(NC(=O)C(N)CC(C)C)C(=O)O (stereo not drawn) [Leu-Met] (H-Leu-Met-OH; configuration not given here) | <0.122 ng/mL | 0.0501 OD (750 nm) | Effect on toxin production (in words) (C. difficile ATCC 9689 [1]): toxin production inhibitor
CC(C)CC(N)C(=O)NC(Cc1ccccc1)C(=O)O (stereo not drawn) [Leu-Phe] (H-Leu-Phe-OH; configuration not given here) | <0.122 ng/mL | 0.0538 OD (750 nm) | Effect on toxin production (in words) (C. difficile ATCC 9689 [1]): toxin production inhibitor
CCCCN [N-Butylamine] | 5679 ng/mL | 0.0407 OD (750 nm) | –
O=NO [Nitrite] | 383 ng/mL | 0.0333 OD (750 nm) | –
O=P(O)(O)OP(=O)(O)O [Pyrophosphate] | <0.122 ng/mL | – | C. difficile Mass (C. difficile ATCC 9689 [2]; [3]): 0.0075 OD (750 nm)
OP(O)(O)=S [Thiophosphate] | <0.122 ng/mL | – | C. difficile Mass (C. difficile ATCC 9689 [2]; [3]): 0.0373 OD (750 nm)
O=P1([O-])OP(=O)([O-])OP(=O)([O-])O1.[Na+].[Na+].[Na+] [Trimetaphosphate] | <0.122 ng/mL | – | C. difficile Mass (C. difficile ATCC 9689 [2]; [3]): 0.0493 OD (750 nm)
NCCCCC(=O)O [δ-Amino-N-Valeric acid] | 435 ng/mL | 0.0424 OD (750 nm) | –
NCCCCCC(=O)O [ε-Amino-N-Caproic acid] | 3389 ng/mL | 0.0366 OD (750 nm) | –
Ala-Gly | 2130 ng/mL | – | C. difficile Mass (C. difficile ATCC 9689 [2]; carbon source (PM01/PM02)): 0.0934 OD (750 nm)
Ala-Pro | <0.122 ng/mL | 0.0507 OD (750 nm) | –
Arg-Ala | 10080 ng/mL | 0.0456 OD (750 nm) | –
Arg-Arg | 8229 ng/mL | 0.0435 OD (750 nm) | –
Arg-Asp | 10371 ng/mL | 0.0444 OD (750 nm) | –

Molecule | Toxin (C. difficile ATCC 9689 [1]) | C. difficile Mass (C. difficile ATCC 9689 [2]; [4]) | also measured
Arg-Gln | 8912 ng/mL | 0.0476 OD (750 nm) | –
Arg-Glu | 4059 ng/mL | 0.0404 OD (750 nm) | –
Arg-Phe | 6541 ng/mL | 0.0467 OD (750 nm) | –
Arg-Ser | 7608 ng/mL | 0.0448 OD (750 nm) | –
Arg-Trp | 8423 ng/mL | 0.0499 OD (750 nm) | –
Arg-Tyr | 8819 ng/mL | 0.0455 OD (750 nm) | –
Gly-Arg | 352 ng/mL | 0.0403 OD (750 nm) | –
Gly-Asp | 1507 ng/mL | – | C. difficile Mass (C. difficile ATCC 9689 [2]; carbon source (PM01/PM02)): 0.1004 OD (750 nm)
Gly-D-Asp | 1537 ng/mL | 0.0467 OD (750 nm) | –
Gly-D-Ser | 297 ng/mL | 0.0543 OD (750 nm) | –
Gly-D-Thr | 157 ng/mL | 0.0549 OD (750 nm) | –
Gly-Glu | 366 ng/mL and 184 ng/mL | 0.0472 OD (750 nm) | C. difficile Mass (C. difficile ATCC 9689 [2]; carbon source (PM01/PM02)): 0.0411 OD (750 nm)
Gly-Gly-Gly | 1811 ng/mL | 0.0456 OD (750 nm) | –
Gly-Gly-Ile | <0.122 ng/mL | 0.0421 OD (750 nm) | –
Gly-Gly-Leu | 215 ng/mL | 0.0305 OD (750 nm) | –
Gly-Phe-Phe | 298 ng/mL | 0.2751 OD (750 nm) | –
Gly-Pro | 3798 ng/mL | 0.0414 OD (750 nm) | –
Gly-Ser | <0.122 ng/mL | 0.0471 OD (750 nm) | –
Gly-Trp | 3632 ng/mL | 0.0431 OD (750 nm) | –
His-Leu | 376 ng/mL | 0.0495 OD (750 nm) | –
His-Lys | 6993 ng/mL | 0.0453 OD (750 nm) | –
His-Pro | 8568 ng/mL | 0.0481 OD (750 nm) | –
His-Trp | 178 ng/mL | 0.0442 OD (750 nm) | –
Ile-Arg | 122 ng/mL | 0.0442 OD (750 nm) | –

Molecule | Toxin (C. difficile ATCC 9689 [1]) | C. difficile Mass (C. difficile ATCC 9689 [2]; [4]) | also measured
Leu-Asn | 381 ng/mL | 0.0482 OD (750 nm) | –
Leu-Ser | 116 ng/mL | 0.037 OD (750 nm) | –
Leu-Trp | <0.122 ng/mL | 0.0380 OD (750 nm) | Effect on toxin production (in words) (C. difficile ATCC 9689 [1]): toxin production inhibitor
Lys-Arg | 5536 ng/mL | 0.0502 OD (750 nm) | –
Lys-Asp | 335 ng/mL | 0.0525 OD (750 nm) | –
Lys-Glu | 271 ng/mL | 0.0425 OD (750 nm) | –
Lys-Gly | 1950 ng/mL | 0.047 OD (750 nm) | –
Lys-Lys | 150 ng/mL | 0.0427 OD (750 nm) | –
Lys-Phe | <0.122 ng/mL | 0.0533 OD (750 nm) | –
Lys-Ser | 5105 ng/mL | 0.0426 OD (750 nm) | –
Lys-Trp | 5277 ng/mL | 0.006 OD (750 nm) | –
Pro-Arg | 2967 ng/mL | 0.0442 OD (750 nm) | –
Pro-Hyp | 7523 ng/mL | 0.045 OD (750 nm) | –
Ser-Leu | 187 ng/mL | 0.0404 OD (750 nm) | –
Ser-Pro | 7136 ng/mL | 0.0472 OD (750 nm) | –
Thr-Gln | <0.122 ng/mL | 0.0403 OD (750 nm) | –
Thr-Pro | 4772 ng/mL | 0.0355 OD (750 nm) | –
Trp-Ala | 415 ng/mL | 0.0489 OD (750 nm) | –
Trp-Arg | 6468 ng/mL | 0.0628 OD (750 nm) | –
Trp-Trp | 4104 ng/mL | 0.055 OD (750 nm) | –
Trp-Tyr | 134 ng/mL | 0.0451 OD (750 nm) | –
Trp-Val | 184 ng/mL | 0.0276 OD (750 nm) | –
Tyr-Ala | 186 ng/mL | 0.0331 OD (750 nm) | –
